Experimental data from ChEMBL document CHEMBL1159092, “Polar 3-alkylidene-5-pivaloyloxymethyl-5'-hydroxymethyl-gamma-lactones as protein kinase C ligands and antitumor agents” (Bioorg Med Chem Lett, 2010).
≈ marks a conversion by molar mass, not a printed value.

Legend:
[1] = Antitumor activity against human Hs 578T cells; assay type: functional
COLO 205 = assay: Antitumor activity against human COLO205 cells; assay type: functional
SK-MEL-5 = assay: Antitumor activity against human SK-MEL-5 cells; assay type: functional
[2] = Antitumor activity against human NCI-H322 cells; assay type: functional
[3] = biological target: Protein kinase C alpha type (Homo sapiens, UniProt P17252); assay: Displacement of [20-3H]phorbol 12,13-dibutyrate from recombinant PKCalpha
K562 = assay: Antitumor activity against human K562 cells; assay type: functional
MOLT-4F = assay: Antitumor activity against human MOLT4F cells; assay type: functional
CCRF-CEM = assay: Antitumor activity against human CCRF-CEM cells; assay type: functional
HL-60 = assay: Antitumor activity against human HL60 cells; assay type: functional

Row | Compound | GI50 [1] [µg/mL] | GI50 (COLO 205) [µg/mL] | GI50 (SK-MEL-5) [µg/mL] | GI50 [2] [µg/mL] | Ki [3] [nM] | GI50 (K562) [µg/mL] | GI50 (MOLT-4F) [µg/mL] | GI50 (CCRF-CEM) [µg/mL] | GI50 (HL-60) [µg/mL]
1 | COCCCCCCCCCCC/C=C1\CC(CO)(COC(=O)C(C)(C)C)OC1=O (configuration not stated) | 7.34 (≈ 17.2 µM) | 0.541 (≈ 1.27 µM) | 2.81 (≈ 6.58 µM) | > 10 | 8.2 | 0.516 (≈ 1.21 µM) | 2.38 (≈ 5.59 µM) | 0.701 (≈ 1.64 µM) | 5.22 (≈ 12.2 µM)
2 | COCCOCOCCCCCCC/C=C1\CC(CO)(COC(=O)C(C)(C)C)OC1=O (configuration not stated) | – | – | – | – | 323 | – | – | – | –
3 | CC(C)CCOCCCCCCC/C=C1\CC(CO)(COC(=O)C(C)(C)C)OC1=O (configuration not stated) | – | – | – | – | 7.74 | – | – | – | –
4 | COC(=O)CCCCCC/C=C1\CC(CO)(COC(=O)C(C)(C)C)OC1=O (configuration not stated) | – | – | – | – | 533 | – | – | – | –
5 | COCOCCCCCCC/C=C1\CC(CO)(COC(=O)C(C)(C)C)OC1=O (configuration not stated) | > 10 | 2.01 (≈ 5.01 µM) | 8.33 (≈ 20.8 µM) | > 10 | 198 | 3.69 (≈ 9.22 µM) | 1.84 (≈ 4.6 µM) | > 10 | > 10
6 | CC(C)(C)C(=O)OCCCCCCCCCCCCCCC/C=C1\CC(CO)(COC(=O)C(C)(C)C)OC1=O (configuration not stated) | 5.24 (≈ 9.48 µM) | 0.597 (≈ 1.08 µM) | 3.46 (≈ 6.25 µM) | > 10 | 10.5 | 0.352 (≈ 0.637 µM) | 0.605 (≈ 1.09 µM) | > 10 | 7.78 (≈ 14.1 µM)
7 | CCCCCCCCCOCCCCCCC/C=C1\CC(CO)(COC(=O)C(C)(C)C)OC1=O (configuration not stated) | 4.64 (≈ 9.61 µM) | 0.264 (≈ 0.547 µM) | 1.43 (≈ 2.96 µM) | > 10 | 3.2 | 0.156 (≈ 0.323 µM) | 2.14 (≈ 4.43 µM) | 0.304 (≈ 0.63 µM) | 4.53 (≈ 9.37 µM)
8 | CC(C)(C)C(=O)OCC1(CO)C/C(=C\CCCCCCCCCCCCCCCO)C(=O)O1 (configuration not stated) | – | – | – | – | 6.4 | – | – | – | –
9 | CC(C)(C)C(=O)OCC1(CO)C/C(=C\CCCCCCCCCCCCCCCN)C(=O)O1 (configuration not stated) | > 10 | 1.53 (≈ 3.28 µM) | 5.1 (≈ 10.9 µM) | 8.43 (≈ 18 µM) | 36.4 | 1.52 (≈ 3.25 µM) | 3.17 (≈ 6.77 µM) | 2.82 (≈ 6.03 µM) | > 10
10 | CC(C)(C)C(=O)OCC1(CO)C/C(=C/CCCCCCCCCCCCCCC=O)C(=O)O1 (configuration not stated) | > 10 | 5.14 (≈ 11 µM) | > 10 | > 10 | 11.4 | 2.58 (≈ 5.53 µM) | 2.02 (≈ 4.33 µM) | > 10 | > 10
11 | CC(C)(C)C(=O)OCC1(CO)C/C(=C\CCCCCCCOC2CCCC2)C(=O)O1 (configuration not stated) | – | – | – | – | 10.2 | – | – | – | –
12 | CC(C)(C)C(=O)OCC1(CO)C/C(=C\CCCCCCCCCCCCCCCOC=O)C(=O)O1 (configuration not stated) | – | – | – | – | 8 | – | – | – | –
13 | COc1cccc2c1C(=O)c1c(O)c3c(c(O)c1C2=O)C[C@@](O)(C(=O)CO)C[C@@H]3O[C@H]1C[C@H](N)[C@H](O)[C@H](C)O1.Cl [DOXORUBICIN HYDROCHLORIDE] | 0.596 | 0.523 | 0.481 | 0.615 | – | 0.375 | 0.277 | 0.181 | 0.413
14 | CC(C)(C)C(=O)OCC1(CO)C/C(=C\CCCCCCCCCCCO)C(=O)O1 (configuration not stated) | > 10 | 2.49 (≈ 6.03 µM) | 5.81 (≈ 14.1 µM) | > 10 | 14.5 | 1.09 (≈ 2.64 µM) | 1.34 (≈ 3.26 µM) | 0.65 (≈ 1.58 µM) | > 10
15 | COCCCCCCCCCCCCCCC/C=C1\CC(CO)(COC(=O)C(C)(C)C)OC1=O (configuration not stated) | 5.45 (≈ 11.3 µM) | 0.118 (≈ 0.244 µM) | 1.75 (≈ 3.63 µM) | > 10 | 4.4 | 0.189 (≈ 0.392 µM) | 0.498 (≈ 1.03 µM) | 4.26 (≈ 8.83 µM) | 4.65 (≈ 9.64 µM)
16 | CCCCCCCCCCCCC/C=C1/CC(CO)(COC(=O)C(C)(C)C)OC1=O (configuration not stated) | – | – | – | – | 7.15 | – | – | – | –
